How the values were obtained:
Autotaxin [1] = target: T1, Autotaxin (Homo sapiens, UniProt Q13822); assay: Inhibition of human recombinant ATX using FS-3 as substrate incubated in dark for 45 mins by fluorescence assay
Autotaxin [2] = target: T1, Autotaxin; assay: Inhibition of ATX in human plasma assessed as decrease in hydrolysis of lysophosphatidylcholine by measuring choline release after 24 hrs by horseradish peroxidase/choline oxidase-coupled assay; assay type: cell-free
[3] = Half life in CD1 mouse blood at 1 mg/kg, iv administered as bolus dose measured up to 7 hrs by UPLC/MS/MS spectrometry analysis; assay type: ADME, organism-based
[4] = Intrinsic clearance in CD1 mouse liver microsomes assessed per gram of liver at 1 uM in presence of NADPH regenerating system measured up to 45 mins by UPLC/MS/MS analysis; assay type: ADME; details: 0.75 h
[5] = Blood clearance in CD1 mouse at 1 mg/kg, iv administered as bolus dose measured up to 7 hrs by UPLC/MS/MS spectrometry analysis; assay type: ADME, organism-based
[6] = Volume of distribution at steady state in CD1 mouse at 1 mg/kg, iv administered as bolus dose measured up to 7 hrs by UPLC/MS/MS spectrometry analysis; assay type: ADME, organism-based; details: in vivo, read-out: Vdss
Autotaxin [7] = target: T1, Autotaxin; assay: Inhibition of human recombinant ATX using Rac-1-Palmitoyl-glycero-3-phosphocholine as substrate incubated for 2 hrs using ADHP fluorogenic peroxidase substrate by horseradish peroxidase/choline oxidase-coupled assay
[8] = Half life in CD1 mouse blood at 0.5 mg/kg, iv administered as bolus dose measured up to 7 hrs by UPLC/MS/MS spectrometry analysis; assay type: ADME, organism-based
[9] = Volume of distribution at steady state in CD1 mouse at 0.5 mg/kg, iv administered as bolus dose measured up to 7 hrs by UPLC/MS/MS spectrometry analysis; assay type: ADME, organism-based; details: in vivo, read-out: Vdss
[10] = Blood clearance in CD1 mouse at 0.5 mg/kg, iv administered as bolus dose measured up to 7 hrs by UPLC/MS/MS spectrometry analysis; assay type: ADME, organism-based
[11] = Intrinsic clearance in human liver microsomes assessed per gram of liver at 1 uM in presence of NADPH regenerating system measured up to 45 mins by UPLC/MS/MS analysis; assay type: ADME; details: 0.75 h

| Compound | IC50 (Autotaxin [2]) [nM] | CLH [4] [mL/min/g] | IC50 (Autotaxin [7]) [nM] | other results |
| --- | --- | --- | --- | --- |
| COc1ccc(CNC(=O)CCc2nc3cccnc3n2Cc2ccccc2)cc1 | 8870 |  |  | IC50 (Autotaxin [1]): 40 nM |
| C[C@H](NC(=O)CCc1nc2cccnc2n1Cc1ccc(C(F)(F)F)cc1)c1ccc(Cl)cc1 | 16 | 26.5 |  | half-life [3]: 19.8 min; clearance [5]: 72 mL/min/kg; Vd [6]: 0.88 L/kg |
| C[C@H](NC(=O)OCc1nc2cccnc2n1Cc1ccc(F)cc1)c1ccc(F)cc1 | 3290 | 21.8 | 366 |  |
| O=C(CCc1nc2cccnc2n1Cc1ccccc1)NCc1ccccc1 |  |  | 1240 |  |
| C[C@H](NC(=O)NCc1nc2cccnc2n1Cc1ccc(F)cc1)c1ccc(Cl)cc1 | 414 |  |  |  |
| COc1ccc(Cn2c(CCC(=O)N[C@@H](C)c3ccccc3)nc3cccnc32)cc1 | 318 | 35 |  | half-life [8]: 10.2 min; Vd [9]: 0.19 L/kg; clearance [10]: 75 mL/min/kg; CLH [11]: 21.4 mL/min/g |
| C[C@H](NC(=O)CCc1nc2ccncc2n1Cc1ccc(OC(F)(F)F)cc1)c1ccc(Cl)cc1 | 34 | 18.1 |  | half-life [3]: 8.4 min; clearance [5]: 73 mL/min/kg; Vd [6]: 0.2 L/kg |
| C[C@H](NC(=O)CCc1nc2cccnc2n1Cc1ccc(F)cc1)c1ccc(F)cc1 | 444 |  |  |  |
| C[C@H](NC(=O)CCc1nc2cccnc2n1Cc1ccccc1)c1ccccc1 | 288 | 21.4 |  | CLH [11]: 62 mL/min/g |
| C[C@H](NC(=O)CSc1nc2cccnc2n1Cc1ccc(OC(F)(F)F)cc1)c1ccc(F)cc1 | 19 | 71.5 |  | half-life [3]: 12 min; clearance [5]: 81 mL/min/kg; Vd [6]: 0.3 L/kg |
| O=C(CCc1nc2cccnc2n1Cc1ccccc1)NCCc1ccccc1 |  |  | 3440 |  |
| O=C(CCc1nc2cccnc2n1Cc1ccccc1)NCc1ccccn1 |  |  | 11000 |  |
| O=C(CCc1nc2cccnc2n1Cc1ccccc1)NCc1cccc(F)c1 |  |  | 1250 |  |
| O=C(CCc1nc2cccnc2n1Cc1ccc(F)cc1)N[C@@H](CO)c1ccc(Cl)cc1 | 26 | 4.4 | 5 | half-life [3]: 9.6 min; clearance [5]: 73 mL/min/kg; Vd [6]: 0.2 L/kg |
| C[C@H](NC(=O)CCc1nc2ccncc2n1Cc1ccc(F)cc1)c1ccc(F)cc1 | 333 |  |  |  |
| COc1ccc(Cn2c(CCC(=O)N[C@H](C)c3ccccc3)nc3cccnc32)cc1 | 8500 |  |  |  |

Source: ChEMBL document CHEMBL3864162, “Discovery of potent inhibitors of the lysophospholipase autotaxin” (Bioorg Med Chem Lett, 2016)
